According to ChEMBL document CHEMBL5576107, “Wajeepeptin, a Cytotoxic and Antitrypanosomal Cyclic Depsipeptide from a Marine Moorena sp. Cyanobacterium” (J Nat Prod, 2024):
Calls of active or inactive are those of the source. The rule behind the calls is not given here. Starred links: 1 amine or outer side, 2 acyl side, 3 side chain; linkers in the order of their positions; H or OH if unused. Non-standard residues stand in square brackets, D forms with d. Residues, ends and D or L forms follow the SMILES beside them. X1 = CC[C@@H](N[*:1])[C@H](C)C(=O)[*:2]; NMeI = CC[C@H](C)[C@H](NC)C(=O)O; NMeV = CN[C@H](C(=O)O)C(C)C; Hiv = CC(C)[C@H](O)C(=O)O; NMeA = CN[C@@H](C)C(=O)O; Lac = C[C@H](O)C(=O)O

Experiments:
[1] = system: HeLa; assay: Antiproliferative activity against human HeLa cells measured after 72 hrs by MTT assay; format: functional, cell-based
[2] = system: Trypanosoma brucei rhodesiense; assay: Antitrypanosomal activity against Trypanosoma brucei rhodesiense IL-1501 measured after 69 hrs by alamar blue staining based microplate fluorescence assay; format: functional, organism-based; settings: IL-1501, 69 h
[3] = system: Plasmodium falciparum; assay: Antimalarial activity against synchronized asexual blood stage Plasmodium falciparum 3D7 at 10 uM measured after 72 hrs by LDH assay; format: functional, organism-based

CC[C@H](C)[C@H]1C(=O)N[C@@H](C)C(=O)N(C)[C@@H](C(C)C)C(=O)N(C)[C@@H](C)C(=O)N[C@@H](C(C)C)C(=O)N(C)[C@@H](C(C)C)C(=O)O[C@@H](C)C(=O)N[C@H](CC)[C@H](C)C(=O)O[C@@H](C(C)C)C(=O)N1C (cyclo(A[NMeV][NMeA]V[NMeV][Lac][X1][Hiv][NMeI]))
IC50 [1]: 3.7 µM
IC50 [2]: 730 nM
Activity [3]: inactive

N=C(N)c1ccc(OCCCCCOc2ccc(C(=N)N)cc2)cc1 [PENTAMIDINE]
IC50 [2]: 6.3 nM
